Laboratory results as given in the NIST ThermoML archive (doi:10.1016/j.jct.2017.06.001).

Experiment: xn = mol fraction of the nth substance listed
Conditions: 100 kPa, Liquid; for speed of sound: Frequency=5 MHz, Pulse-echo method; for mass density: Vibrating tube method

OCCCCCO [1,5-pentanediol] + O
Conditions	mass density [kg/m3]	speed of sound [m/s]
298.15 K, x1 = 0.005	996.7	–
298.15 K, x1 = 0.0101	996.7	–
298.15 K, x1 = 0.0196	997.13	–
298.15 K, x1 = 0.0251	997.61	–
298.15 K, x1 = 0.0304	998.17	–
298.15 K, x1 = 0.05	999.75	–
298.15 K, x1 = 0.0769	1001.11	–
298.15 K, x1 = 0.1002	1002.09	–
298.15 K, x1 = 0.1282	–	1678.7
298.15 K, x1 = 0.1298	–	1679.1
298.15 K, x1 = 0.1332	–	1680
298.15 K, x1 = 0.1353	–	1680.5
298.15 K, x1 = 0.1358	–	1680.6
298.15 K, x1 = 0.1417	–	1681.8
298.15 K, x1 = 0.1438	1002.72	–
298.15 K, x1 = 0.1444	–	1682.3
298.15 K, x1 = 0.1473	–	1682.8
298.15 K, x1 = 0.1535	–	1683.7
298.15 K, x1 = 0.1536	–	1683.7
298.15 K, x1 = 0.1588	–	1684.3
298.15 K, x1 = 0.1603	–	1684.5
298.15 K, x1 = 0.1616	–	1684.6
298.15 K, x1 = 0.1649	–	1684.9
298.15 K, x1 = 0.1676	–	1685.1
298.15 K, x1 = 0.1771	–	1685.7
298.15 K, x1 = 0.1845	1002.56	–
298.15 K, x1 = 0.1944	–	1686.1
298.15 K, x1 = 0.2114	–	1686
298.15 K, x1 = 0.2309	–	1685.4
298.15 K, x1 = 0.247	–	1684.6
298.15 K, x1 = 0.2503	1001.62	–
298.15 K, x1 = 0.2649	–	1683.5
298.15 K, x1 = 0.2807	–	1682.5
298.15 K, x1 = 0.2987	–	1681.1
298.15 K, x1 = 0.3	1000.58	–
298.15 K, x1 = 0.3178	–	1679.6
298.15 K, x1 = 0.3343	999.9	–
298.15 K, x1 = 0.3356	–	1678
298.15 K, x1 = 0.3619	–	1675.6
298.15 K, x1 = 0.38	–	1673.8
298.15 K, x1 = 0.4015	–	1671.6
298.15 K, x1 = 0.4171	998.14	–
298.15 K, x1 = 0.4247	–	1669.1
298.15 K, x1 = 0.4487	–	1666.4
298.15 K, x1 = 0.454	997.25	–
298.15 K, x1 = 0.4652	–	1664.4
298.15 K, x1 = 0.4828	–	1662.2
298.15 K, x1 = 0.4985	–	1660.2
298.15 K, x1 = 0.5003	996.2	–
298.15 K, x1 = 0.5142	–	1658.1
298.15 K, x1 = 0.5304	–	1656
298.15 K, x1 = 0.5362	995.4	–
298.15 K, x1 = 0.5465	–	1653.8
298.15 K, x1 = 0.5643	–	1651.3
298.15 K, x1 = 0.5819	–	1648.8
298.15 K, x1 = 0.5991	–	1646.4
298.15 K, x1 = 0.6177	993.8	–
298.15 K, x1 = 0.6187	–	1643.6
298.15 K, x1 = 0.6363	–	1641.1
298.15 K, x1 = 0.6478	993.2	–
298.15 K, x1 = 0.6547	–	1638.5
298.15 K, x1 = 0.6726	–	1635.9
298.15 K, x1 = 0.6904	–	1633.4
298.15 K, x1 = 0.7025	992.2	–
298.15 K, x1 = 0.7097	–	1630.7
298.15 K, x1 = 0.729	–	1628
298.15 K, x1 = 0.7504	991.4	–
298.15 K, x1 = 0.7505	–	1625.1
298.15 K, x1 = 0.7712	–	1622.3
298.15 K, x1 = 0.7919	–	1619.6
298.15 K, x1 = 0.7927	990.6	–
298.15 K, x1 = 0.8118	–	1617
298.15 K, x1 = 0.8321	–	1614.5
298.15 K, x1 = 0.8523	–	1612
298.15 K, x1 = 0.8605	989.3	–
298.15 K, x1 = 0.8751	–	1609.2
298.15 K, x1 = 0.8978	–	1606.4
298.15 K, x1 = 0.9004	988.6	–
298.15 K, x1 = 0.9201	–	1603.7
298.15 K, x1 = 0.9427	–	1600.9
298.15 K, x1 = 0.9496	987.5	–
298.15 K, x1 = 0.9712	–	1597.4
298.15 K, x1 = 0.9832	–	1595.9
298.15 K, x1 = 0.993	–	1594.7
298.15 K, x1 = 1	986.5	1593.8
303.15 K, x1 = 0.0002	–	1510.1
303.15 K, x1 = 0.0005	–	1510.9
303.15 K, x1 = 0.0007	–	1511.8
303.15 K, x1 = 0.0011	–	1513
303.15 K, x1 = 0.0014	–	1514.2
303.15 K, x1 = 0.0019	–	1515.5
303.15 K, x1 = 0.0023	–	1517.1
303.15 K, x1 = 0.0028	–	1518.5
303.15 K, x1 = 0.0033	–	1520.2
303.15 K, x1 = 0.0038	–	1521.9
303.15 K, x1 = 0.0045	–	1524.1
303.15 K, x1 = 0.0052	–	1526.2
303.15 K, x1 = 0.006	–	1528.5
303.15 K, x1 = 0.0067	–	1530.9
303.15 K, x1 = 0.0076	–	1533.3
303.15 K, x1 = 0.0084	–	1535.8
303.15 K, x1 = 0.0093	–	1538.3
303.15 K, x1 = 0.0102	–	1540.9
303.15 K, x1 = 0.0111	–	1543.4
303.15 K, x1 = 0.0121	–	1546.1
303.15 K, x1 = 0.0131	–	1549
303.15 K, x1 = 0.0143	–	1552
303.15 K, x1 = 0.0152	–	1554.6
303.15 K, x1 = 0.0164	–	1557.6
303.15 K, x1 = 0.0176	–	1560.4
303.15 K, x1 = 0.0187	–	1563.2
303.15 K, x1 = 0.0198	–	1565.8
303.15 K, x1 = 0.0211	–	1568.8
303.15 K, x1 = 0.0224	–	1571.8
303.15 K, x1 = 0.0238	–	1575
303.15 K, x1 = 0.025	–	1577.6
303.15 K, x1 = 0.0263	–	1580.4
303.15 K, x1 = 0.0274	–	1582.8
303.15 K, x1 = 0.0286	–	1585.1
303.15 K, x1 = 0.0298	–	1587.5
303.15 K, x1 = 0.0311	–	1590.1
303.15 K, x1 = 0.0323	–	1592.4
303.15 K, x1 = 0.0336	–	1594.7
303.15 K, x1 = 0.035	–	1597.4
303.15 K, x1 = 0.0363	–	1599.7
303.15 K, x1 = 0.0378	–	1602.2
303.15 K, x1 = 0.0396	–	1605.2
303.15 K, x1 = 0.0417	–	1608.5
303.15 K, x1 = 0.0431	–	1610.7
303.15 K, x1 = 0.0455	–	1614.4
303.15 K, x1 = 0.0471	–	1616.7
303.15 K, x1 = 0.0489	–	1619.2
303.15 K, x1 = 0.0504	–	1621.1
303.15 K, x1 = 0.0519	–	1623.1
303.15 K, x1 = 0.0541	–	1625.9
303.15 K, x1 = 0.0565	–	1628.8
303.15 K, x1 = 0.0594	–	1632.1
303.15 K, x1 = 0.0615	–	1634.4
303.15 K, x1 = 0.0646	–	1637.6
303.15 K, x1 = 0.0673	–	1640.2
303.15 K, x1 = 0.0706	–	1643.2
303.15 K, x1 = 0.0746	–	1646.6
303.15 K, x1 = 0.0782	–	1649.5
303.15 K, x1 = 0.0815	–	1651.8
303.15 K, x1 = 0.0842	–	1653.7
303.15 K, x1 = 0.0876	–	1655.8
303.15 K, x1 = 0.0913	–	1658
303.15 K, x1 = 0.0937	–	1659.3
303.15 K, x1 = 0.0967	–	1660.8
303.15 K, x1 = 0.0996	–	1662.2
303.15 K, x1 = 0.1022	–	1663.4
303.15 K, x1 = 0.1053	–	1664.7
303.15 K, x1 = 0.1078	–	1665.7
303.15 K, x1 = 0.1089	–	1666.1
303.15 K, x1 = 0.1114	–	1667
303.15 K, x1 = 0.1126	–	1667.4
303.15 K, x1 = 0.1153	–	1668.3
